# Experimental data as given in publication PMC9487755 (Epigenetics, 2021).
# Like-named read-outs stand apart in the source and are kept apart here.
# T1: C. difficile CamA (Clostridioides difficile, UniProt Q183J3)
# T1 sequence (Q183J3 1-577): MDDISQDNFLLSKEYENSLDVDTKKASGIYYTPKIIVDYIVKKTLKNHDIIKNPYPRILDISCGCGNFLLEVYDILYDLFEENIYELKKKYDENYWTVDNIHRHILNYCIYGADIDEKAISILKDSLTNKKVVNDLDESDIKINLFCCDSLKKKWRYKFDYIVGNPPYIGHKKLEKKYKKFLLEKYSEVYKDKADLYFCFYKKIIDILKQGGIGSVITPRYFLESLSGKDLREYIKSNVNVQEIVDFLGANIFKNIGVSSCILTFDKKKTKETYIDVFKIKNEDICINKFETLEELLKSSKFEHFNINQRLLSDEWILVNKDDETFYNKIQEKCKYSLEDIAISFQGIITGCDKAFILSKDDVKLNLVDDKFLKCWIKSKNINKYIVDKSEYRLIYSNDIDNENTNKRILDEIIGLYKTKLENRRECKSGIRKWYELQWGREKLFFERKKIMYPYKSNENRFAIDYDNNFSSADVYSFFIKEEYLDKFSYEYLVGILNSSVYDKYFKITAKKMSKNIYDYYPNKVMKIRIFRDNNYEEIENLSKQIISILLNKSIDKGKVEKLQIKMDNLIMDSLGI
# T2: CamA (Clostridioides difficile, UniProt Q183J3)
# T2 sequence (Q183J3 1-577): T1 sequence (Q183J3 1-577)
# T3: CamA (DNA adenine methyltransferase, plasmid pXC2184) (Clostridioides difficile, UniProt Q183J3 1-577)
# T3 sequence: T1 sequence (Q183J3 1-577)
# B1: 14-bp CamA co-crystallization duplex (dsDNA)
# DNA 1: TTCAAAAAGTCCCA
# DNA 2: ATGGGACTTTTTGA
# Key:
# [1] = tested on: PRMT7; settings: read-out: IC50 PRMT7 activity; cited from earlier work
# [2] = target: T1, C. difficile CamA; test: CamA methylation inhibition assay; type: biochemical; settings: for Relative inhibition of CamA activity at a single inhibitor concentration: 50 μM inhibitor
# [3] = target: T2, CamA; test: ITC binding of inhibitors to CamA
# [4] = tested on: E. coli Dam; settings: read-out: Km of SAM for E. coli Dam; cited from earlier work
# [5] = target: M.TaqI; settings: read-out: KD of SAM for M.TaqI; cited from earlier work
# [6] = tested on: phage T4 Dam; settings: read-out: Km of SAM for phage T4 Dam; cited from earlier work
# [7] = target: T2, CamA; settings: cited from earlier work
# [8] = tested on: four human RNA adenine MTases and two bacterial DNA adenine MTases; test: Selectivity: in vitro inhibition of other class I MTases; type: biochemical; settings: four human RNA adenine MTases and two bacterial DNA adenine MTases (Figure 5)
# [9] = target: T3, CamA (DNA adenine methyltransferase, …); test: X-ray crystallography
molecule,measurement,setting,value
NCCCSC[C@H]1O[C@@H](n2cnc3c(N)ncnc32)[C@H](O)[C@@H]1O [SGC0911],IC50,[1],1 µM
"CC(C)N(C[C@H]1O[C@@H](n2cnc3c(N)ncnc32)[C@H](O)[C@@H]1O)[C@H]1C[C@@H](CCc2nc3cc(C(C)(C)C)ccc3[nH]2)C1 [EPZ5676, pinometostat]",IC50,[2],> 250 µM
same,Relative inhibition of CamA activity at a single inhibitor concentration,[2],failed to inhibit CamA
same,Kd,[3],> 50 µM
"C[S+](CC[C@H](N)C(=O)[O-])C[C@H]1O[C@@H](n2cnc3c(N)ncnc32)[C@H](O)[C@@H]1O (stereo partly drawn) [SAM, S-adenosyl-L-methionine]",Km,[4],3 to 6 µM
same,Kd,[5],2 µM
same,Km,[6],0.5 µM
same,Kd,[7]; read-out: KD of SAM binding by CamA,35 µM
same,Km,[7]; read-out: Km of SAM for CamA,> 17 µM
CC1=C(C)C(=O)C(C(C)(C)CC(=O)N(CCCCSC[C@H]2O[C@@H](n3cnc4c(N)ncnc43)[C@H](O)[C@@H]2O)Cc2cccc(-c3ccc(Cl)cc3)c2)=C(C)C1=O [SGC3027],Relative inhibition of CamA activity at a single inhibitor concentration,[2],does not possess in vitro inhibitory activity
Nc1ncnc2c1ccn2[C@@H]1O[C@H]([C@H](O)c2ccccc2)[C@@H](O)[C@H]1O [LLY-283],Relative inhibition of CamA activity at a single inhibitor concentration,[2],much weaker inhibition than sinefungin
CC(C)N(CCCNC(=O)Nc1ccc(C(C)(C)C)cc1)C[C@H]1O[C@@H](n2cc(Br)c3c(N)ncnc32)[C@H](O)[C@@H]1O [SGC0946],in vitro inhibition against six distinct MTase enzymes,[8],~ 50%
same,IC50,[2],4.7 µM
same,Relative inhibition of CamA activity at a single inhibitor concentration,[2],notable inhibition
same,Fold more potent inhibition of CamA (IC50) than EPZ004777,[2]; SGC0946 vs. EPZ004777,~ 9 X
same,Kd,[3],6.3 µM
same,Fold stronger binding to CamA (KD) than EPZ004777,[3]; SGC0946 vs. EPZ004777,~ 3 X
CC(C)N(CCCNC(=O)Nc1ccc(C(C)(C)C)cc1)C[C@H]1O[C@@H](n2ccc3c(N)ncnc32)[C@H](O)[C@@H]1O [EPZ004777],Relative inhibition of CamA activity at a single inhibitor concentration,[2],notable inhibition
B1,binding result,[9],binds
